Reference: US20220363689A1, “INHIBITOR OF BTK AND MUTANTS THEREOF” (Newave Pharmaceutical Inc., priority 2019, published 2022)

Key:
Type in all cases: biochemical
WT BTK [1] = molecular target: T1, WT BTK (Homo sapiens, UniProt Q06187); experiment: In vitro dialysis assay (irreversibility assay), WT BTK; details: reversible or irreversible/covalent inhibition after 24 h dialysis
Experimental: The compound-enzyme complex was dialyzed against the same buffer supplemented with 40 mM ATP for 24 hr. Cumulative dialysis factor>160,000×. After dialysis, the BTK activity was measured in the presence […] and 1 mM substrate peptide and compared to that in non-dialyzed samples. Assay buffer: 100 mM HEPES, pH7.5; […]; 5 mM MgCl2; 1 mM DTT. In this study, Ibrutiib (a FDA approved irreversible BTK inhibitor) was used as a positive control and Saurosporine (a reversible BTK inhibitor) was used as a negative control.

WT BTK [2] = molecular target: T1, WT BTK; experiment: Caliper-based kinase assay, WT BTK; details: 0.5 nM enzyme, ATP 16 μM, room temperature 3 h; read-out: WT BTK IC50 (nM) (irreversible inhibition)
Experimental: (§1) A Caliper-based kinase assay (Caliper Life Sciences, Hopkinton, Mass.) was used to measure inhibition of WT and […] Btk kinase activity of a compound of the present disclosure. […] The reaction was then terminated with EDTA, final concentration 20 mM and the phosphorylated reaction product was quantified on a Caliper Desktop Profiler (Caliper LabChip 3000).

C481S Btk = C481S Btk (Homo sapiens, UniProt Q06187, C481S); experiment: Caliper-based kinase assay, C481S BTK; details: 0.5 nM enzyme, ATP 16 μM, room temperature 3 h; read-out: C481S BTK IC50 (nM) (reversible inhibition)
Experimental: as §1

T1 sequence (Q06187 whole entry): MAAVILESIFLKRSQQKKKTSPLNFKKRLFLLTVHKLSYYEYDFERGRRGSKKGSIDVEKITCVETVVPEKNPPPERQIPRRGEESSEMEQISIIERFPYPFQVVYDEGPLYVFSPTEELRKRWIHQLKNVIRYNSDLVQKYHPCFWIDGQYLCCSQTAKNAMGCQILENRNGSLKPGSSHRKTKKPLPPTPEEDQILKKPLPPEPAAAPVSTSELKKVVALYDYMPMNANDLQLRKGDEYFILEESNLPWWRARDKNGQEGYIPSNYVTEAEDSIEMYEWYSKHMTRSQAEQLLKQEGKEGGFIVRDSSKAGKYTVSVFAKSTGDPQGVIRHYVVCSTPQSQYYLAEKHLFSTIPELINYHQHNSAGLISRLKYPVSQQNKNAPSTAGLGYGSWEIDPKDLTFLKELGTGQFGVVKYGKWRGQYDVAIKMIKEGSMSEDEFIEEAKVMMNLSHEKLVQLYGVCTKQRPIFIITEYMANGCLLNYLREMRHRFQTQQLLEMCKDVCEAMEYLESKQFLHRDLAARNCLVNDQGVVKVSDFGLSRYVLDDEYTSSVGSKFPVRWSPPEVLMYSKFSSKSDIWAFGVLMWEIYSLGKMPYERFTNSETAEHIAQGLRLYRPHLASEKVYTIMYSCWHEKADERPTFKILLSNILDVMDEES
C481S Btk, sequence (Q06187 whole entry C481S): as the sequence (Q06187 whole entry) above, with C481S counted along it

SMILES | Conclusion (WT BTK) (WT BTK [1]) | IC50 (WT BTK [2]) [nM] | IC50 (C481S Btk) [nM]
C=CC(=O)Nc1cc(Nc2nc(-c3ccnc(N4CCn5c(cc6c5CC(C)(C)C6)C4=O)c3CO)cn(C)c2=O)cc(F)c1N1CCN(C2COC2)C[C@@H]1C [Example 30, N-(5-[[6-(2-[4,4-dimethyl-9-oxo-1,10-diazatricyclo[6.4.0.0^[2,6]]dodeca-2(6),7-dien-10-yl]-3-(hydroxymethyl)pyridin-4-yl)-4-methyl-3-oxopyrazin-2-yl]amino]-3-fluoro-2-[(2S)-2-methyl-4-(oxetan-3-yl)piperazin-1-yl]phenyl)prop-2-enamide] | – | 1.58 | 1.6
C=CC(=O)Nc1cc(Nc2nc(-c3ccnc(N4CCc5c(sc6c5CC(C)(C)C6)C4=O)c3CO)cn(C)c2=O)ccc1N1CCN(C2COC2)C[C@@H]1C [Example 34, N-(5-[[6-(2-[4,4-dimethyl-9-oxo-7-thia-10-azatricyclo[6.4.0.0^[2,6]]dodeca-1(8),2(6)-dien-10-yl]-3-(hydroxymethyl)pyridin-4-yl)-4-methyl-3-oxopyrazin-2-yl]amino]-2-[(2S)-2-methyl-4-(oxetan-3-yl)piperazin-1-yl]phenyl)prop-2-enamide] | Irreversible/covalent inhibition | – | 0.46
C=CC(=O)Nc1cc(Nc2nc(-c3ccnc(N4CCn5c(cc6c5CC(C)(C)C6)C4=O)c3C)cn(C)c2=O)ccc1N1CCN(C2CCOCC2)C[C@@H]1C [Example 40, N-(5-[[6-(2-[4,4-dimethyl-9-oxo-1,10-diazatricyclo[6.4.0.0^[2,6]]dodeca-2(6),7-dien-10-yl]-3-methylpyridin-4-yl)-4-methyl-3-oxopyrazin-2-yl]amino]-2-[(2S)-2-methyl-4-(oxan-4-yl)piperazin-1-yl]phenyl)prop-2-enamide] | Irreversible/covalent inhibition | 0.083 | –
C=CC(=O)Nc1cc(Nc2nc(-c3ccnc(N4CCc5c(sc6c5CCCC6)C4=O)c3C)cn(C)c2=O)ccc1N1CCN(C2COC2)C[C@@H]1C [Example 44, (S)—N-(2-(2-methyl-4-(oxetan-3-yl)piperazin-1-yl)-5-((4-methyl-6-(3-methyl-2-(1-oxo-3,4,5,6,7,8-hexahydrobenzo [4, 5]thieno [2,3-c]pyridin-2(1H)-yl)pyridin-4-yl)-3-oxo-3,4-dihydropyrazin-2-yl)amino)phenyl) acrylamide] | Irreversible/covalent inhibition | 0.98 | –
C=CC(=O)Nc1cc(Nc2nc(-c3ccnc(N4CCn5c(cc6c5CC(C)(C)C6)C4=O)c3C)cn(C)c2=O)cnc1N1CCN(C2COC2)C[C@@H]1C [Example 46, N-(5-[[6-(2-[4,4-dimethyl-9-oxo-1,10-diazatricyclo[6.4.0.0^[2,6]]dodeca-2(6),7-dien-10-yl]-3-methylpyridin-4-yl)-4-methyl-3-oxopyrazin-2-yl]amino]-2-[(2S)-2-methyl-4-(oxetan-3-yl)piperazin-1-yl]pyridin-3-yl)prop-2-enamide] | Irreversible/covalent inhibition | 0.16 | –
C=CC(=O)Nc1cc(Nc2nc(-c3ccnc(N4CCc5c(sc6c5CCCC6)C4=O)c3CO)cn(C)c2=O)ccc1N1CCN(C2CCOCC2)C[C@@H]1C(F)(F)F [Example 55-R, N-[5-([6-[3-(hydroxymethyl)-2-[6-oxo-8-thia-5-azatricyclo[7.4.0.0^[2,7]]trideca-1(9), 2(7)-dien-5-yl]pyridin-4-yl]-4-methyl-3-oxopyrazin-2-yl]amino)-2-[(2R)-4-(oxan-4-yl)-2-(trifluoromethyl)piperazin-1-yl]phenyl]prop-2-enamide] | Irreversible/covalent inhibition | 0.24 | –

Next, values leading:

Conclusion (WT BTK) (WT BTK [1]) | IC50 (WT BTK [2]) [nM] | IC50 (C481S Btk) [nM] | SMILES
Irreversible/covalent inhibition | 0.14 | 0.72 | C=CC(=O)Nc1cc(Nc2nc(-c3ccnc(N4CCn5c(cc6c5CC(C)(C)C6)C4=O)c3CO)cn(C)c2=O)ccc1N1CCN(C2COC2)C[C@@H]1C [Example 3, (S)—N-(5-((6-(2-(7,7-dimethyl-1-oxo-1,3,4,6,7,8-hexahydro-2H-cyclopenta[4,5]pyrrolo[1,2-a]pyrazin-2-yl)-3-(hydroxymethyl)pyridin-4-yl)-4-methyl-3-oxo-3,4-dihydropyrazin-2-yl)amino)-2-(2-methyl-4-(oxetan-3-yl)piperazin-1-yl)phenyl)acrylamide]
Irreversible/covalent inhibition | 0.25 | 15.9 | C=CC(=O)Nc1cc(Nc2nc(-c3ccnc(N4CCn5c(cc6c5CC(C)(C)C6)C4=O)c3C)cn(C)c2=O)ccc1N1CCN(C2COC2)C[C@@H]1C [Example 11, (S)—N-(5-((6-(2-(7,7-dimethyl-1-oxo-1,3,4,6,7,8-hexahydro-2H-cyclopenta[4,5]pyrrolo[1,2-a]pyrazin-2-yl)-3-methylpyridin-4-yl)-4-methyl-3-oxo-3,4-dihydropyrazin-2-yl)amino)-2-(2-methyl-4-(oxetan-3-yl)piperazin-1-yl)phenyl)acrylamide]
Irreversible/covalent inhibition | 0.36 | – | C=CC(=O)Nc1cc(Nc2nc(-c3ccnc(N4CCn5c(cc6c5CC(C)(C)C6)C4=O)c3C)cn(C)c2=O)ccc1N1CCN(C2COC2)CC1(C)C [Example 45, N-[2-[2,2-dimethyl-4-(oxetan-3-yl)piperazin-1-yl]-5-[[6-(2-[4,4-dimethyl-9-oxo-1,10-diazatricyclo[6.4.0.0^[2,6]]dodeca-2(6),7-dien-10-yl]-3-methylpyridin-4-yl)-4-methyl-3-oxopyrazin-2-yl]amino]phenyl]prop-2-enamide]
Irreversible/covalent inhibition | 0.12 | – | C=CC(=O)Nc1cc(Nc2nc(-c3ccnc(N4CCn5c(cc6c5CC(C)(C)C6)C4=O)c3CO)cn(C)c2=O)ccc1N1CCN(C2CCOCC2)CC1C (centres unmarked) [Example 47, N-(5-((6-(2-(7,7-dimethyl-1-oxo-1,3,4,6,7,8-hexahydro-2H-cyclopenta[4,5]pyrrolo[1,2-a]pyrazin-2-yl)-3-(hydroxymethyl)pyridin-4-yl)-4-methyl-3-oxo-3,4-dihydropyrazin-2-yl)amino)-2-(2-methyl-4-(tetrahydro-2H-pyran-4-yl)piperazin-1-yl)phenyl)acrylamide]
Irreversible/covalent inhibition | 0.065 | – | C=CC(=O)Nc1cc(Nc2nc(-c3ccnc(N4CCn5c(cc6c5CC(C)(C)C6)C4=O)c3CO)cn(C)c2=O)ccc1N1CCN(C2CCOCC2)C[C@@H]1C(F)(F)F [Example 48-R, N-(5-[[6-(2-[4,4-dimethyl-9-oxo-1,10-diazatricyclo[6.4.0.0^[2,6]]dodeca-2(6),7-dien-10-yl]-3-(hydroxymethyl)pyridin-4-yl)-4-methyl-3-oxopyrazin-2-yl]amino]-2-[(2R)-4-(oxan-4-yl)-2-(trifluoromethyl)piperazin-1-yl]phenyl)prop-2-enamide]
Irreversible/covalent inhibition | 0.4 | – | C=CC(=O)Nc1cc(Nc2nc(-c3ccnc(N4CCn5c(cc6c5CC(C)(C)C6)C4=O)c3C)cn(C)c2=O)ccc1N1CCN(C2CCOCC2)C[C@@H]1C(F)(F)F [Example 53-R, N-(5-[[6-(2-[4,4-dimethyl-9-oxo-1,10-diazatricyclo[6.4.0.0^[2,6]]dodeca-2(6),7-dien-10-yl]-3-methylpyridin-4-yl)-4-methyl-3-oxopyrazin-2-yl]amino]-2-[(2R)-4-(oxan-4-yl)-2-(trifluoromethyl)piperazin-1-yl]phenyl)prop-2-enamide]
Irreversible/covalent inhibition | 1 | – | C=CC(=O)Nc1cc(Nc2nc(-c3ccnc(N4CCn5c(cc6c5CC(C)(C)C6)C4=O)c3C)cn(C)c2=O)ccc1N1CCN(C2CCOCC2)C[C@H]1C(F)(F)F [Example 53-S, N-(5-[[6-(2-[4,4-dimethyl-9-oxo-1,10-diazatricyclo[6.4.0.0^[2,6]]dodeca-2(6),7-dien-10-yl]-3-methylpyridin-4-yl)-4-methyl-3-oxopyrazin-2-yl]amino]-2-[(2S)-4-(oxan-4-yl)-2-(trifluoromethyl)piperazin-1-yl]phenyl)prop-2-enamide]
Irreversible/covalent inhibition | 2.9 | – | C=CC(=O)Nc1cc(Nc2nc(-c3ccnc(N4CCc5c(sc6c5CCCC6)C4=O)c3C)cn(C)c2=O)ccc1N1CCN(C2CCOCC2)C[C@@H]1C(F)(F)F [Example 54-R, N-(5-[[4-methyl-6-(3-methyl-2-[6-oxo-8-thia-5-azatricyclo[7.4.0.0^[2,7]]trideca-1(9), 2(7)-dien-5-yl]pyridin-4-yl)-3-oxopyrazin-2-yl]amino]-2-[(2R)-4-(oxan-4-yl)-2-(trifluoromethyl)piperazin-1-yl]phenyl)prop-2-enamide]
Irreversible/covalent inhibition | 4.4 | – | C=CC(=O)Nc1cc(Nc2nc(-c3ccnc(N4CCc5c(sc6c5CCCC6)C4=O)c3C)cn(C)c2=O)ccc1N1CCN(C2CCOCC2)C[C@H]1C(F)(F)F [Example 54-S, N-(5-[[4-methyl-6-(3-methyl-2-[6-oxo-8-thia-5-azatricyclo[7.4.0.0^[2,7]]trideca-1(9), 2(7)-dien-5-yl]pyridin-4-yl)-3-oxopyrazin-2-yl]amino]-2-[(2S)-4-(oxan-4-yl)-2-(trifluoromethyl)piperazin-1-yl]phenyl)prop-2-enamide]
